Measured values as given in article PMC13249053, “Mechanism of auranofin toxicity: Inhibition of tetrahydrobiopterin metabolism” (Toxicology and applied pharmacology, 2025).
Substitutions are numbered along the chain they refer to. “Also recorded” adds a separate entry of the source. Read-outs that look alike come from different tables or passages of the source.

Key:
[1] = test system: BH4 formation in HaCaT cells; test: BH4 formation from sepiapterin in intact HaCaT cells (HPLC); format: cell-based, human; details: intact HaCaT cells; auranofin 2 h, then 100 μM sepiapterin 3 h; read-out: IC50, inhibition of BH4 formation in intact HaCaT cells
Procedure: (§1) The growth medium was then removed and the cells incubated with growth medium containing 100 μM sepiapterin. […] BH2 and BH4 were then analyzed on a Jasco high-performance liquid chromatography system (Easton, MD) fitted with a Maxsil-10 C18 column (250 × 4 mm; Phenomenex, Torrance, CA). […] Cell viability following drug treatments was greater than 95 %.
Fig. 3. Effects of auranofin on BH2 and BH4 production in intact HaCaT cells treated with sepiapterin. HaCaT cells (~1 × 10^6 cells/well in 6 well culture plates) were incubated with control medium or medium containing increasing concentrations of auranofin for 2 h followed by 100 μM sepiapterin. After an additional 3 h, BH2 and BH4 were extracted from the cells and analyzed by HPLC with fluorescence detection. Left panel: Chromatograms showing BH2 and BH4 content of control cells and cells treated with Auranofin.
Fig. 6. […] Cells were treated with control medium or medium containing MTX (1 μM, 2 h), an inhibitor of DHFR, followed by 200 μM sepiapterin (upper panel) or BH2 (lower panel). After an additional 3 h incubation, cells were rinsed with PBS; BH2 and BH4 were then extracted and analyzed by HPLC as described in the Materials and Methods.

[2] = target: T1, sepiapterin reductase (SPR) (Homo sapiens, UniProt P35270); test: SPR enzyme activity in HaCaT cell lysates (BH2 formation from sepiapterin, HPLC); format: biochemical; details: BH2 formation from sepiapterin by HPLC, read-out: IC50, inhibition of SPR in HaCaT cell lysates
T1 construct: endogenous in cells; host or cells: HaCaT, Jurkat, BeWo, SKNMC, CX-1
T1 sequence (P35270 whole entry): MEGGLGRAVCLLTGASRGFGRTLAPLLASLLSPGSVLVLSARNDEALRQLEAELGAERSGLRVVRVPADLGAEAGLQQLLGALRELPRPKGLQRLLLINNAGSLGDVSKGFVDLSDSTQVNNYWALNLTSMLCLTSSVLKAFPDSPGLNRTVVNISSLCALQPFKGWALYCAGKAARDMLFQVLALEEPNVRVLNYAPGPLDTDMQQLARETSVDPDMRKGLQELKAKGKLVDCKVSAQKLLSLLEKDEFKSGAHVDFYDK
Procedure: as §1
Fig. 4. Effects of auranofin on sepiapterin reductase (SPR) enzyme activity in HaCaT lysates. Lysates were assayed for SPR enzyme activity in control reaction mixes or reaction mixes containing increasing concentrations of auranofin (left panel). SPR activity was determined by decreases in BH2 formation from sepiapterin as measured by HPLC (right panel).

SPR [3] = target: T2, SPR (Rattus norvegicus, UniProt P18297); test: Cellular SPR activity: BH2 formation from sepiapterin in the presence of methotrexate, PC12 cells; format: cell-based; details: PC12 (rat pheochromocytoma); with methotrexate
T2 construct: endogenous in cells; host or cells: PC12
T2 sequence (P18297 whole entry): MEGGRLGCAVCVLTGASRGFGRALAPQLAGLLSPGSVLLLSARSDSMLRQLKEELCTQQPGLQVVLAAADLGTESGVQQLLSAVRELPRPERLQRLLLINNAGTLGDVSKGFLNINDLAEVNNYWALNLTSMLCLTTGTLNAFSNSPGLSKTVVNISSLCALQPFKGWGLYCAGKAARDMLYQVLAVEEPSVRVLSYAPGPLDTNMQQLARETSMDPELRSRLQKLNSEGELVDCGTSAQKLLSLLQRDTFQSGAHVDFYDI
Procedure: as §1

SPR [4] = target: T3, SPR (Mus musculus, UniProt Q64105); test: Cellular SPR activity: BH2 formation from sepiapterin in the presence of methotrexate, RAW264.7 cells; format: cell-based; details: RAW264.7 (mouse macrophage); with methotrexate
T3 construct: endogenous in cells; host or cells: RAW264.7
T3 sequence (Q64105 whole entry): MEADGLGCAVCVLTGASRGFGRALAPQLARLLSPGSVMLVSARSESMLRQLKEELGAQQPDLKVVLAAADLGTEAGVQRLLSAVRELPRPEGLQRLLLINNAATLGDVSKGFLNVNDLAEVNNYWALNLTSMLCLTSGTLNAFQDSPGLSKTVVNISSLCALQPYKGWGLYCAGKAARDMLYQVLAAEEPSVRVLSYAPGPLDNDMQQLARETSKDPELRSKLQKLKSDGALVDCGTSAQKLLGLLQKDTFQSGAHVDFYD
Procedure: as §1

DHFR [5] = target: T4, DHFR (Rattus norvegicus, UniProt Q920D2); test: Cellular DHFR activity: BH4 formation from BH2, PC12 cells; format: cell-based; details: PC12 (rat pheochromocytoma)
T4 construct: endogenous in cells; host or cells: PC12
T4 sequence (Q920D2 1-187): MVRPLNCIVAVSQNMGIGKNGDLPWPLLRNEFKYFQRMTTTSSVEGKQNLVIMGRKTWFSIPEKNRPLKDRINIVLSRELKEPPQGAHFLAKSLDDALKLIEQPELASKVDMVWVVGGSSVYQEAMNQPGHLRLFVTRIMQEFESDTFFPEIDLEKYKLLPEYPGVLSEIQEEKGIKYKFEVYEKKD
Procedure: as §1

DHFR [6] = target: T5, DHFR (Mus musculus, UniProt P00375); test: Cellular DHFR activity: BH4 formation from BH2, RAW264.7 cells; format: cell-based; details: RAW264.7 (mouse macrophage)
T5 construct: endogenous in cells; host or cells: RAW264.7
T5 sequence (P00375 1-187): T4 sequence (Q920D2 1-187) with L27P, Q85R, K99R, V115I, E155G, I170V
Procedure: as §1

[7] = test system: catecholamine and monoamine production in PC12 cells; test: Catecholamine and monoamine production in PC12 cells (HPLC, electrochemical detection); format: cell-based, rat; details: auranofin 0.04–2.5 μM
Procedure: Catecholamine and monoamine production in PC12 cells were assayed as previously described ([Yang et al., 2015]). Briefly, cells grown in 10-cm culture dishes were treated in the absence or presence of auranofin (0.04–2.5 μM) in 10 ml of growth medium without FBS. After 24 h, the cells were removed from the plates, washed with phosphate-buffered saline, and centrifuged (1500 g, 10 min). Cell pellets (~8 × 10^6 cells) were resuspended in 1 ml of 0.1 N perchloric acid containing 200 μM EDTA and 350 μM sodium metabisulfite and sonicated on ice. Ly-sates were centrifuged (20,000 g, 10 min) and clear supernatants filtered using 0.22-μm filters. Extracts were then analyzed for neurotransmitters and their metabolites using a Waters 2695 high-performance liquid chromatography system (Waters Corp., Milford, MA) fitted with a cation exchange column (MD-150 3.2 × […] column; ESA Biosciences, Inc., Chelmsford, MA) using an isocratic mobile phase (MD-TM mobile phase; ESA Biosciences Inc.) containing 2.2 mM NaCl pumped at constant flow rate of 0.5 ml/min. Compounds were quantified by electrochemical detection using a glassy carbon working electrode (2 mm in diameter) with an in situ silver reference electrode (flow cell, 2 mm GC WE, ISAAC; Waters Corp.) ([Yochum et al., 2014]).
Fig. 9. […] Cells were analyzed for BH2 and BH4 as described in the Materials and Methods. […]

SPR [8] = target: SPR (Homo sapiens, UniProt P35270); test: Cellular SPR activity: BH2 formation from sepiapterin in the presence of methotrexate, human cell lines; format: cell-based; set-up: endogenous in cells; host or cells: HaCaT, Jurkat, BeWo, SKNMC, CX-1
SPR (Homo sapiens, UniProt P35270), sequence (P35270 whole entry): as the sequence (P35270 whole entry) above

Compound: CC[PH](CC)(CC)[Au][S][C@@H]1O[C@H](COC(C)=O)[C@@H](OC(C)=O)[C@H](OC(C)=O)[C@H]1OC(C)=O [auranofin, 2,3,4,6-tetra-O-acetyl-1-thio-β-D-glucopyranosato-S-triethyl phosphine gold]
- IC50 [1]: 7.9 µM
- IC50 [2]: 1.8 µM
- IC50 (SPR [3]): 1 ± 0.11 µM
- IC50 (SPR [4]): 21.3 ± 1.58 µM
- IC50 (DHFR [5]): 0.87 ± 0.09 µM
- IC50 (DHFR [6]): 17.2 ± 0.63 µM
- production of monoamines (serotonin, dopamine) and their metabolites (5HIAA, DOPAC, HVA) [7]: concentration-dependent inhibition; also recorded: significantly reduced
- IC50 (SPR [8]; BeWo (human choriocarcinoma), with methotrexate, read-out: SPR IC50, BeWo cells): 8.9 ± 0.64 µM
- IC50 (SPR [8]; CX-1 (human colon adenocarcinoma), with methotrexate, read-out: SPR IC50, CX-1 cells): 25.1 ± 1.03 µM
- IC50 (SPR [8]; HaCaT (human keratinocytes), with MTX 1 μM, auranofin 2 h, then 200 μM sepiapterin 3 h, listed as Auranofin, read-out: SPR IC50, HaCaT cells): 10.7 µM
- IC50 (SPR [8]; HaCaT (human keratinocytes), with MTX 1 μM, auranofin 2 h, then 200 μM sepiapterin 3 h, read-out: SPR IC50, HaCaT cells): 10.7 ± 0.9 µM
- time of pretreatment to maximum inhibition of cellular SPR (SPR [8]; HaCaT cells with methotrexate, 20 μM auranofin): 2 h
- IC50 (SPR [8]; Jurkat (human leukemia), with methotrexate, read-out: SPR IC50, Jurkat cells): 7.2 ± 0.17 µM
- IC50 (SPR [8]; SKNMC (human neuroblastoma), with methotrexate, read-out: SPR IC50, SKNMC cells): 17.7 ± 1.54 µM
